From article PMC11509018, “Evaluation of the Role of Tanshinone I in an In Vitro System of Charcot-Marie-Tooth Disease Type 2N” (International Journal of Molecular Sciences, 2024) come the findings set out here.

This test deals with T1, AlaRS E337K binding to Nrp1 (Homo sapiens, UniProt P49588, E337K).
T1 construct: expressed in transfected cells
T1 sequence (P49588 1-968 E337K): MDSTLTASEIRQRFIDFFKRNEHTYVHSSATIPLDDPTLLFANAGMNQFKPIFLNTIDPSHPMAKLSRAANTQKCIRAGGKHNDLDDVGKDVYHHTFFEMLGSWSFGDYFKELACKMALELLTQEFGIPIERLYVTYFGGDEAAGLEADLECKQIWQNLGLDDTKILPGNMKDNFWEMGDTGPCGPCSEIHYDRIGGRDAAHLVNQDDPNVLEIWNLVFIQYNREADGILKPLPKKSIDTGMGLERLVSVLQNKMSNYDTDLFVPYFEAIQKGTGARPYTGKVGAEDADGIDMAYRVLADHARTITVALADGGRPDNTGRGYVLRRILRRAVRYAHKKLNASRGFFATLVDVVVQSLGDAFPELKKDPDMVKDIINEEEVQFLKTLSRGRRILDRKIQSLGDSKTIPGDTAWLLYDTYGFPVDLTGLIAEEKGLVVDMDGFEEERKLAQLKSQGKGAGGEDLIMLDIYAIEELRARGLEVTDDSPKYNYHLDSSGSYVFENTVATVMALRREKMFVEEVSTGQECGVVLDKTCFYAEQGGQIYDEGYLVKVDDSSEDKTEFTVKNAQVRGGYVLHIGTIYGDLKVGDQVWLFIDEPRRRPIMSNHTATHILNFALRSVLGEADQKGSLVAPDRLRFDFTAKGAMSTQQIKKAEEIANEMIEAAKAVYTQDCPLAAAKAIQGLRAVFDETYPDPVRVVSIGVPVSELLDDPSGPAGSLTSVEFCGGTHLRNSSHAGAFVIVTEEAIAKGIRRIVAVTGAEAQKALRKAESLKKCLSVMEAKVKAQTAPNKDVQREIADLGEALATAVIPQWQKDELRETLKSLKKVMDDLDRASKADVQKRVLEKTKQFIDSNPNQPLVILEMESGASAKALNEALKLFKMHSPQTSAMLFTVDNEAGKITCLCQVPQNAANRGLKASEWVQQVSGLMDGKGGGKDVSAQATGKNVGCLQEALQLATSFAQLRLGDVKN
Kind of test: Co-IP of HA-AlaRS mutant with Nrp1 in transfected cells. The conditions noted are these: 20 µM Tanshinone I for 24 h, ImageJ, average of three repeats. The format is cell-based. On the procedure:
To further investigate whether Tanshinone I-induced conformational changes in AlaRS CMT mutants affect their interaction with Nrp1, Co-IP experiments were performed in cells treated with Tanshinone I. By comparing Co-IP results obtained before and after treatment, we assessed the influence of the drug on the binding strength and mode between the AlaRS CMT mutants and Nrp1. […] To confirm the direct effect of Tanshinone I on the interaction between AlaRS CMT mutants and Nrp1, pull-down experiments were performed. […] Given that the interaction between AlaRS mutants and Nrp1 is associated with disease progression in CMT, the ability of Tanshinone I to disrupt this binding highlights its potential to intervene in the pathogenic mechanisms of these diseases.
Figure 7 The impact of Tanshinone I on the interaction between AlaRS mutants and Nrp1. (A) Co-IP assays were conducted to assess the binding between HA-AlaRS mutants and Nrp1, both with and without treatment with 20 µM Tanshinone I for 24 h. […] (C) Pull down assay was performed to detect the binding between AlaRS mutants and GST-Nrp1 b1 with or without 20 µM Tanshinone I. (D) Relative quantification statistics of the AlaRS mutants pulled down from the GST pull down experiments after Tanshinone I treatment were performed using ImageJ. (E) The cell viability of 293T and NSC34 cells treated with different concentrations of Tanshinone I was assessed using the CCK-8 assay over a 24 h period. TEXT PRINTED IN THE PICTURE: (B) Tanshinone I: Mean density band (N71Y): 0.60; Mean density band (G102R): 0.53; Mean density band (R326W): 0.50; Mean density band (R329H): 0.50; Mean density band (E337K): 0.62 | (D) Tanshinone I: Mean density band (N71Y): 0.82; Mean density band (G102R): 0.76; Mean density band (R326W): 0.84; Mean density band (R329H): 0.84; Mean density band (E337K): 0.90
Total protein was extracted from cells using RIPA buffer (50 mM Tris-HCl pH 7.4, 150 mM NaCl, 1% NP40, 1 mM EDTA) supplemented with a protease and phosphatase inhibitor cocktail (Roche, Basel, Switzerland). After SDS-PAGE, the protein on the gel was transferred to a PVDF membrane (Bio-Rad, Hercules, CA, USA) and then blocked with 5% non-fat dry milk in TBST for 1 h. Then, the membranes were incubated with the indicated primary antibodies and corresponding HRP-conjugated secondary antibodies. Signals were detected using the Bio-Rad ChemiDoc system (Bio-Rad, Shanghai, China). The following antibodies were used: Flag (Ray antibody biotech, Beijing, China, 1:3000), HA (Ray antibody biotech, Beijing, China, 1:3000), and GAPDH (Ray antibody biotech, Beijing, China, 1:5000).
To detect the binding of Nrp1 and AlaRS mutants in cells, whole-cell lysates (500 μg) were treated overnight with 2 μg of anti-Flag antibody in RIPA buffer. Next, Protein A/G agarose beads (#sc-2003, Santa Cruz Biotechnology, Santa Cruz, CA, USA) were applied to the lysates and the samples were further treated for 8–12 h with rotation. Samples were washed three times with RIPA buffer. Subsequently, the immunoprecipitations were resuspended into 2 × SDS-loading buffer. The samples were then boiled for 10 min and detected using Western blot. The experiment was repeated three times.

Consider `Cc1coc2c1C(=O)C(=O)c1c-2ccc2c(C)cccc12` [Tanshinone I], for which the “Mean density band (E337K), relative quantification of AlaRS mutant immunoprecipitated” value amounted to 0.62.
